Reference: ChEMBL document CHEMBL1157802, “5-Functionalized indazoles as glucocorticoid receptor agonists” (Bioorg Med Chem Lett, 2010)
Active and inactive are the calls of the source. The rule behind the calls is not given here.

Key:
[1] = Selectivity for human glucocorticoid receptor over ERalpha
[2] = target: Prostaglandin E2 receptor EP4 subtype (Homo sapiens) (UniProt P35408); test: Inhibition of prostanoid EP4 receptor at 1 uM
[3] = Inhibition of central benzodiazepine receptor at 1 uM
Mus musculus [4] = test: Antiinflammatory activity in mouse assessed as reduction of LPS-stimulated TNFalpha expression at 30 mg/kg relative to control; format: functional, organism-based; set-up: dose 30 mg/kg
[5] = target: Beta-2 adrenergic receptor (Homo sapiens) (UniProt P07550); test: Inhibition of adrenergic beta2 receptor at 1 uM
[6] = target: T1, Muscarinic acetylcholine receptor M2 (Homo sapiens) (UniProt P08172); test: Inhibition of muscarinic M2 receptor at 1 uM
T1 sequence (whole entry): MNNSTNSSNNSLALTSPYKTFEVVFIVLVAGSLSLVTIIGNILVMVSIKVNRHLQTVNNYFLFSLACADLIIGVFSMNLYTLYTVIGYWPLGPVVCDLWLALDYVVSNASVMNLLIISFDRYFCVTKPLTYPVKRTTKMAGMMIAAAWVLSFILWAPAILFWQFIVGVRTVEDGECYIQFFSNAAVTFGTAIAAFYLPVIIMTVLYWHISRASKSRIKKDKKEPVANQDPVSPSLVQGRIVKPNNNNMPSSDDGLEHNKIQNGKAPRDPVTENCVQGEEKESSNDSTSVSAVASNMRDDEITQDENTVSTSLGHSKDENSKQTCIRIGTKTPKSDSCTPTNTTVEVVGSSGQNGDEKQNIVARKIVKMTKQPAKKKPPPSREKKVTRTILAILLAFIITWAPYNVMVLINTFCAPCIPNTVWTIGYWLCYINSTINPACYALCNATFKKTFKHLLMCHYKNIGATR

[7] = Inhibition of calcium channel L type dihydropyridine binding site at 1 uM
[8] = Inhibition of ATP-sensitive potassium channel at 1 uM
[9] = Inhibition of NMDA receptor at 1 uM
[10] = Selectivity for human glucocorticoid receptor over progesterone receptor
[11] = Inhibition of nicotinic acetylcholine receptor at 1 uM
[12] = target: Mu-type opioid receptor (Homo sapiens) (UniProt P35372); test: Inhibition of mu opioid receptor at 1 uM
[13] = target: Histamine H1 receptor (Homo sapiens) (UniProt P35367); test: Inhibition of histamine H1 receptor at 1 uM
[14] = target: T2, Adenosine receptor A1 (Homo sapiens) (UniProt P30542); test: Inhibition of adenosine A1 receptor at 1 uM
T2 sequence (whole entry): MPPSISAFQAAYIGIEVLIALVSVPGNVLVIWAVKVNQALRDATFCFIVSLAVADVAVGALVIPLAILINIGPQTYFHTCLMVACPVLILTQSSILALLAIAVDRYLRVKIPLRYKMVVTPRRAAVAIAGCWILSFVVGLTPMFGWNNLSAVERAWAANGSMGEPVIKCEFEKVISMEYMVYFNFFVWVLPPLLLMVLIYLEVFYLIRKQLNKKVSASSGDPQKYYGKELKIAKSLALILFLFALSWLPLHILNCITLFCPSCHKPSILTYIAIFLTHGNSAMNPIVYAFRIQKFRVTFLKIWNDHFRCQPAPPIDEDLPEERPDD

[15] = target: D(2) dopamine receptor (Homo sapiens) (UniProt P14416); test: Inhibition of dopamine D2S receptor at 1 uM
[16] = Selectivity for human glucocorticoid receptor over androgen receptor
[17] = target: Sodium-dependent noradrenaline transporter (Homo sapiens) (UniProt P23975); test: Inhibition of norepinephrine transporter at 1 uM
[18] = Inhibition of GABAA receptor agonist site at 1 uM; format: functional
[19] = target: Sigma non-opioid intracellular receptor 1 (Homo sapiens) (UniProt Q99720); test: Inhibition of sigma 1 receptor at 1 uM
[20] = Inhibition of phorbol ester site of PKC at 1 uM
[21] = Inhibition of sigma 2 receptor at 1 uM
[22] = Inhibition of rolipram binding site at 1 uM
[23] = Inhibition of central imidazoline I2 receptor at 1 uM
[24] = target: D(1A) dopamine receptor (Homo sapiens) (UniProt P21728); test: Inhibition of dopamine D1 receptor at 1 uM
[25] = target: T3, Alpha-1B adrenergic receptor (Homo sapiens) (UniProt P35368); test: Inhibition of adrenergic Alpha-1B receptor at 1 uM
T3 sequence (whole entry): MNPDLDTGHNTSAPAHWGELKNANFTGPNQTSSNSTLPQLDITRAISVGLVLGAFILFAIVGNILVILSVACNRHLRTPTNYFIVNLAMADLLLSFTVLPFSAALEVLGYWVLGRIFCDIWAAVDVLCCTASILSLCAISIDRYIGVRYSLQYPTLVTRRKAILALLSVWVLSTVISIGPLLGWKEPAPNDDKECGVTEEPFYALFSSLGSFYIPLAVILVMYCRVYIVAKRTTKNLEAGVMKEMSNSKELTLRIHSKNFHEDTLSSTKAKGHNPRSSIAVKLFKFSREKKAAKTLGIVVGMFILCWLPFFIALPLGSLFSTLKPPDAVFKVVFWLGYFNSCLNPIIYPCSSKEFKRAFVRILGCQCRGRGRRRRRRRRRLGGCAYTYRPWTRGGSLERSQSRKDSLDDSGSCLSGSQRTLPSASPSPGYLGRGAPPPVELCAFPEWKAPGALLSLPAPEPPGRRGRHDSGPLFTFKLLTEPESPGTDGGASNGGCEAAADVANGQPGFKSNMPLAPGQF

[26] = Inhibition of sodium channel site 2 at 1 uM
[27] = Inhibition of phencyclidine receptor at 1 uM
[28] = target: T4, Alpha-1A adrenergic receptor (Homo sapiens) (UniProt P35348); test: Inhibition of adrenergic alpha1A receptor at 1 uM
T4 sequence (whole entry): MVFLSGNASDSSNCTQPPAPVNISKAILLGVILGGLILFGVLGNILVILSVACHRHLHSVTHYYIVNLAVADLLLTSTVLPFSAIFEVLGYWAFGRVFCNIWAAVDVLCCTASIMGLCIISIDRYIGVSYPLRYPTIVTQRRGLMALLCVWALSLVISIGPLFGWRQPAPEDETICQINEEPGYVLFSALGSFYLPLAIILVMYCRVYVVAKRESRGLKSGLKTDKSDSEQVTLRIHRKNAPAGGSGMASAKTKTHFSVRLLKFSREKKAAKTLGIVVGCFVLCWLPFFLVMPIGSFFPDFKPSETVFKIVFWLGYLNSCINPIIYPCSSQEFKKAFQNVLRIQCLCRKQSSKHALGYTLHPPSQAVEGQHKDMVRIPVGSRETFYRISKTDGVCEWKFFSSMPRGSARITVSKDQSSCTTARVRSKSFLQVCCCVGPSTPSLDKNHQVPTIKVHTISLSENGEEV

[29] = target: Beta-1 adrenergic receptor (Homo sapiens) (UniProt P08588); test: Inhibition of adrenergic beta-1 receptor at 1 uM
[30] = target: Muscarinic acetylcholine receptor M3 (Homo sapiens) (UniProt P20309); test: Inhibition of muscarinic M3 receptor at 1 uM
[31] = target: T5, Alpha-2A adrenergic receptor (Homo sapiens) (UniProt P08913); test: Inhibition of adrenergic alpha2A receptor at 1 uM
T5 sequence (whole entry): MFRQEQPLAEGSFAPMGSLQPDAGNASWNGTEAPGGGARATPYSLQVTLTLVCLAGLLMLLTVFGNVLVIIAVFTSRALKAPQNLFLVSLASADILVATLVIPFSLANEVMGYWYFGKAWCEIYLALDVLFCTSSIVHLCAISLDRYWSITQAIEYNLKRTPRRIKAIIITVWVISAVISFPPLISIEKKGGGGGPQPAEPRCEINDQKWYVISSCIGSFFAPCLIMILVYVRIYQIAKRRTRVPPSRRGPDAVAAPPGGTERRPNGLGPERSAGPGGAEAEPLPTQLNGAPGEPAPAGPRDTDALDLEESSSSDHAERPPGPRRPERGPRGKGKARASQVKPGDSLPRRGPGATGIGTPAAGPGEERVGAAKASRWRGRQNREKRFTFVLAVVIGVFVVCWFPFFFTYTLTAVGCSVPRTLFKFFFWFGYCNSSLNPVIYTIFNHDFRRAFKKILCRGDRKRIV

[32] = Selectivity for human glucocorticoid receptor over ERbeta
[33] = Inhibition of nicotinic bungarotoxin-sensitive acetylcholine receptor at 1 uM
[34] = target: Adenosine receptor A2a (Homo sapiens) (UniProt P29274); test: Inhibition of adenosine A2A receptor at 1 uM
Mus musculus [35] = test: Antiinflammatory activity in mouse assessed as reduction of LPS-stimulated TNFalpha expression at 60 mg/kg relative to control; format: functional; set-up: scale not given: the % may be the effect or the level left
hERG (KCNH2) = hERG (KCNH2) (Homo sapiens, UniProt Q12809); test: Inhibition of human ERG at 1 uM
Glucocorticoid receptor [36] = target: T6, Glucocorticoid receptor (Homo sapiens, UniProt P04150); test: Agonist activity at glucocorticoid receptor in human fibroblast assessed as inhibition of IL-1-beta-induced IL6 production treated 1 hr before IL1-beta challenge measured after 24 hrs by transrepression assay; format: functional
T6 sequence (P04150 whole entry): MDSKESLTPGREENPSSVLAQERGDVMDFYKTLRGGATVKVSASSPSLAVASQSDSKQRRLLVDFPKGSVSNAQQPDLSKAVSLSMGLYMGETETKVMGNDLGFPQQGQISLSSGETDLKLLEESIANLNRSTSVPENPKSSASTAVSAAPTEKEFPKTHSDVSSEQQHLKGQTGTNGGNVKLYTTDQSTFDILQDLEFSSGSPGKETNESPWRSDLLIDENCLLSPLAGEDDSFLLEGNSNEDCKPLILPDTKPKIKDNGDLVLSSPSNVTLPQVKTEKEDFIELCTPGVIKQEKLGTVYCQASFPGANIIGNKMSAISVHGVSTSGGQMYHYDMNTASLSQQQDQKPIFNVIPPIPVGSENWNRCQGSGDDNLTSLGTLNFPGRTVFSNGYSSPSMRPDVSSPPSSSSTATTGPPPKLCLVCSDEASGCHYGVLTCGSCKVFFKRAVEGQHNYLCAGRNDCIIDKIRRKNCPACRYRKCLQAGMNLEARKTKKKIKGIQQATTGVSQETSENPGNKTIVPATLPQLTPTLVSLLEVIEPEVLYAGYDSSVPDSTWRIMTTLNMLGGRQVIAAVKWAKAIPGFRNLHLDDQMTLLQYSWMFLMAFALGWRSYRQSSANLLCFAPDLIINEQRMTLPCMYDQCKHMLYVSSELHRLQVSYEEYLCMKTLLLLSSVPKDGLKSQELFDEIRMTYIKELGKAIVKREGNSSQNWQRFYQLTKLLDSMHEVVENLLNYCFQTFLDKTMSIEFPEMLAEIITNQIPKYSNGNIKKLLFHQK

Glucocorticoid receptor [37] = target: T6, Glucocorticoid receptor; test: Agonist activity at glucocorticoid receptor in human MDA-kb2 cells transfected with MMTV-LUC assessed as induction of MMTV-LTR/promoter linked LUC gene by luciferase transactivation assay; format: functional, cell-based; conditions: read-out: EC50
[38] = target: Voltage-gated inwardly rectifying potassium channel KCNH2 (Homo sapiens, UniProt Q12809); test: Inhibition of human ERG by patch clamp method
Mus musculus [39] = test: Antiinflammatory activity in mouse assessed as reduction of LPS-stimulated TNFalpha expression at 3 mg/kg relative to control; format: functional; set-up: scale not given: the % may be the effect or the level left
Mus musculus [40] = test: Antiinflammatory activity in mouse assessed as reduction of LPS-stimulated TNFalpha expression at 6 mg/kg relative to control; format: functional; set-up: scale not given: the % may be the effect or the level left
Glucocorticoid receptor [41] = target: T6, Glucocorticoid receptor
Description: Binding affinity to human glucocorticoid receptor by fluorescence polarization competitive binding assay

D(2) dopamine receptor (Homo sapiens), sequence (P14416 whole entry): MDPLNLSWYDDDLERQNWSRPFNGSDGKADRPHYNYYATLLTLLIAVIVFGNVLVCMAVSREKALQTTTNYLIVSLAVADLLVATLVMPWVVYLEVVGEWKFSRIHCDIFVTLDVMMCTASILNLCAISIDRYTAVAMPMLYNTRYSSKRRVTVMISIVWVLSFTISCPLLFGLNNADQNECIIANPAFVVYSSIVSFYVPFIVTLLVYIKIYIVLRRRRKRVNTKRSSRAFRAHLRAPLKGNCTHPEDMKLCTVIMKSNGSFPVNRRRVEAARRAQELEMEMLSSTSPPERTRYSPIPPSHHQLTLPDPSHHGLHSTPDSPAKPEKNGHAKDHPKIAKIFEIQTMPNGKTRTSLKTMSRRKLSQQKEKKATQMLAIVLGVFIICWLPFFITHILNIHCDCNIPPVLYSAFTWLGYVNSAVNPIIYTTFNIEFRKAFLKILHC
Prostaglandin E2 receptor EP4 subtype (Homo sapiens), sequence (P35408 whole entry): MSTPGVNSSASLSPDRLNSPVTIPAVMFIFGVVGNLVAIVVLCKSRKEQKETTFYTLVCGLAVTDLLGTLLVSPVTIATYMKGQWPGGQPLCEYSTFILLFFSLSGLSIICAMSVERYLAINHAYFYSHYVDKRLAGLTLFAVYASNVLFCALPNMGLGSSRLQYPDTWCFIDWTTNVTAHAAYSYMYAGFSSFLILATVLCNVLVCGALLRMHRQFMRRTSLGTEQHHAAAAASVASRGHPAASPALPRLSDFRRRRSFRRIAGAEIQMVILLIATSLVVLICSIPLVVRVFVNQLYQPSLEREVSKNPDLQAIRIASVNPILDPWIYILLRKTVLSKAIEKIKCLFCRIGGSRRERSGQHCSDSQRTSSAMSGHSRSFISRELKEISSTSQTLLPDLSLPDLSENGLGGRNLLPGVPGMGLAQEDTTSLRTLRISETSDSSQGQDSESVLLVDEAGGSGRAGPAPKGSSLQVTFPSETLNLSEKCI
Muscarinic acetylcholine receptor M3 (Homo sapiens), sequence (P20309 whole entry, looked up): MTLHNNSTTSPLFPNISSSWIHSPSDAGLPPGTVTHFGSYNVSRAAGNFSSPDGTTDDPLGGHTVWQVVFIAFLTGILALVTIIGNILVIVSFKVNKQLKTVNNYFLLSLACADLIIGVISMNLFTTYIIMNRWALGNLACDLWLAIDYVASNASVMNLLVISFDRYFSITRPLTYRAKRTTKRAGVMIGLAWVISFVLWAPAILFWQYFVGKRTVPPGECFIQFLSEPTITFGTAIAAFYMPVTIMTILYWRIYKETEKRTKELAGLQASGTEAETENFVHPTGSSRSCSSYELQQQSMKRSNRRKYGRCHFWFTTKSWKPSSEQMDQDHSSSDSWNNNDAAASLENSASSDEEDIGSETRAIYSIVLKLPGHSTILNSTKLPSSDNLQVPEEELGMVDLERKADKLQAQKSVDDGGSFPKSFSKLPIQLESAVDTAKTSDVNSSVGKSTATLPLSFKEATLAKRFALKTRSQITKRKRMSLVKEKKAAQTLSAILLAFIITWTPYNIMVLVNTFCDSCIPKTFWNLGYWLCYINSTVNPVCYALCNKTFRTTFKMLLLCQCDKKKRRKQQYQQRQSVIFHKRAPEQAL
Mu-type opioid receptor (Homo sapiens), sequence (P35372 whole entry): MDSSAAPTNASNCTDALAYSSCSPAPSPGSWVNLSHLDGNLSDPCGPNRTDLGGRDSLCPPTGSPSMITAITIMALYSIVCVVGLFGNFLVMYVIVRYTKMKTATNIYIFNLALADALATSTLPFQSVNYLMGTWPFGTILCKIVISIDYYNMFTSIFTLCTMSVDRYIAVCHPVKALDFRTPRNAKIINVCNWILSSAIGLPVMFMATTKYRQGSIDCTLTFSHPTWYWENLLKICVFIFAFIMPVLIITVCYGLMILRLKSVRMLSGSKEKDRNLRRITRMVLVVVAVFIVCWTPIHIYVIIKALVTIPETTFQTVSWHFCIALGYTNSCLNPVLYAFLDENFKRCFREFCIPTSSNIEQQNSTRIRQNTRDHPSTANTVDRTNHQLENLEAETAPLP
hERG (KCNH2), sequence (Q12809 whole entry): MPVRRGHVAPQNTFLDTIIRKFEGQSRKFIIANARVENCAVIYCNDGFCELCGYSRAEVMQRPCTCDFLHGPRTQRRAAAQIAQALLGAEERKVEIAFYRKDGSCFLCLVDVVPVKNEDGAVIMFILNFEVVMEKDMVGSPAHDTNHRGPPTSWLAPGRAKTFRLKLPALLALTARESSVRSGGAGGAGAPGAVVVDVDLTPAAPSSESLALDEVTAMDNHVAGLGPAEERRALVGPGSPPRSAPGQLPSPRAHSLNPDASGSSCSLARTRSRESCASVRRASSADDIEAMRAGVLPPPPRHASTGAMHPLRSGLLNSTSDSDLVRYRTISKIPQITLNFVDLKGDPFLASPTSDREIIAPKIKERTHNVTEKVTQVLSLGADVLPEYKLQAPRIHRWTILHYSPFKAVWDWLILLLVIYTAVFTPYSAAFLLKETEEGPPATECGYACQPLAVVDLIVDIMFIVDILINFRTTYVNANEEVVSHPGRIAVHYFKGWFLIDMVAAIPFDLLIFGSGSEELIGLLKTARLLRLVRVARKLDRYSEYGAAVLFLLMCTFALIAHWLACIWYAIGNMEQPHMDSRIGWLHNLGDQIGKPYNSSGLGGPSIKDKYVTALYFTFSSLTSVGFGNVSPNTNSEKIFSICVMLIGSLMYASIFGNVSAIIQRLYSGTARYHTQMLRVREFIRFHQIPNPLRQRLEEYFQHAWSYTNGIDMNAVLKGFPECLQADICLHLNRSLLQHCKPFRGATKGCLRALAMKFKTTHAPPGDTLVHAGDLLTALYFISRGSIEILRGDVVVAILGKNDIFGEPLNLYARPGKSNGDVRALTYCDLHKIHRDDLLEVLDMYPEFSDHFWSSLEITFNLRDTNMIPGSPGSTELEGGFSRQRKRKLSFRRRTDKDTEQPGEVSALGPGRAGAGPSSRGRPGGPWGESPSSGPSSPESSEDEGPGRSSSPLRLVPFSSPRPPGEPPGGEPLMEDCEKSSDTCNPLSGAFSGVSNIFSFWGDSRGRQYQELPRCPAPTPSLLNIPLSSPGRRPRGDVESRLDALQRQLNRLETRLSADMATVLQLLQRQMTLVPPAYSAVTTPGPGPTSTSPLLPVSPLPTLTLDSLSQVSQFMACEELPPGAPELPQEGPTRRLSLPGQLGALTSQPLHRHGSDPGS
Voltage-gated inwardly rectifying potassium channel KCNH2, sequence (Q12809 whole entry): as above
D(1A) dopamine receptor (Homo sapiens), sequence (P21728 whole entry): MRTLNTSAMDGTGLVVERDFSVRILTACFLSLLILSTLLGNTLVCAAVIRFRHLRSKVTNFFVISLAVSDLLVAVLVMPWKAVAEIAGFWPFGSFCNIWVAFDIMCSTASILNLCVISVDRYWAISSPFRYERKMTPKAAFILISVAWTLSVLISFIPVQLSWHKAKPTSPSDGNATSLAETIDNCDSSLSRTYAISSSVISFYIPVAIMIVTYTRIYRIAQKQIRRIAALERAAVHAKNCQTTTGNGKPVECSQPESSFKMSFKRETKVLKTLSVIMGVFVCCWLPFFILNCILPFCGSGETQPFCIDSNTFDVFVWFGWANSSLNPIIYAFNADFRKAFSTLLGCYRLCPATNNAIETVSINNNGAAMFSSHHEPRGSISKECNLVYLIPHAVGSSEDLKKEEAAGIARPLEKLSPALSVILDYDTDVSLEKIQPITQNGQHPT
Sigma non-opioid intracellular receptor 1 (Homo sapiens), sequence (Q99720 whole entry): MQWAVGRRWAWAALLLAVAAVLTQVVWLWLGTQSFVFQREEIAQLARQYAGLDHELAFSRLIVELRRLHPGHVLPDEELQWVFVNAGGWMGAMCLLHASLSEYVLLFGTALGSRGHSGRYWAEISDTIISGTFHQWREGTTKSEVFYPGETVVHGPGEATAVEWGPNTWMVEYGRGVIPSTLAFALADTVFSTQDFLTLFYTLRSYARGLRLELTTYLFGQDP

## OC(c1ccc2c(cnn2-c2ccc(F)cc2)c1)(c1cccc(Cl)c1Cl)C(F)(F)F (single isomer, unassigned; (+))
[1]
  Ratio: > 1000
[2]
  inhibition: < 50%
[3]
  inhibition: < 50%
Mus musculus [4]
  Activity: Active
[5]
  inhibition: < 50%
[6]
  inhibition: < 50%
[7]
  inhibition: < 50%
[8]
  inhibition: < 50%
[9]
  inhibition: < 50%
[10]
  Ratio: > 1000
[11]
  inhibition: < 50%
[12]
  inhibition: < 50%
[13]
  inhibition: < 50%
[14]
  inhibition: < 50%
[15]
  inhibition: < 50%
[16]
  Ratio: > 1000
[17]
  inhibition: < 50%
[18]
  inhibition: < 50%
[19]
  inhibition: < 50%
[20]
  inhibition: < 50%
[21]
  inhibition: < 50%
[22]
  inhibition: < 50%
[23]
  inhibition: < 50%
[24]
  inhibition: < 50%
[25]
  inhibition: < 50%
[26]
  inhibition: < 50%
[27]
  inhibition: < 50%
[28]
  inhibition: < 50%
[29]
  inhibition: < 50%
[30]
  inhibition: < 50%
[31]
  inhibition: < 50%
[32]
  Ratio: > 1000
[33]
  inhibition: < 50%
[34]
  inhibition: < 50%

## OC(c1ccc2c(cnn2-c2ccc(F)cc2)c1)(c1cccc(Cl)c1Cl)C(F)(F)F (single isomer, unassigned; (+)) [1-(2,3-DICHLOROPHENYL)-2,2,2-TRIFLUORO-1-(1-(4-FLUOROPHENYL)-1H-INDAZOL-5-YL)ETHANOL (ENANTIOMERIC MIX)]
Mus musculus [35]
  Activity: 68%
hERG (KCNH2)
  inhibition at 1 µM: < 50%
Glucocorticoid receptor [36]
  EC50: 19 nM
Glucocorticoid receptor [37]
  EC50: 350 nM
[38]
  IC50: > 10 µM
Mus musculus [39]
  Activity: 25%
Mus musculus [40]
  Activity: 50%
Glucocorticoid receptor [41]
  IC50: 34 nM
